{
  "source": "patent US11560372B2",
  "about": "“Heterocyclic compounds useful as modulators of acetylcholine receptors” (TAKEDA PHARMACEUTICAL COMPANY LIMITED, priority 2017, dated 2023)",
  "data": [
    {"biological_target": "T1, MDR1 (Homo sapiens, UniProt P08183)", "T1 construct": "expressed in transfected cells", "T1 sequence (P08183 whole entry)": "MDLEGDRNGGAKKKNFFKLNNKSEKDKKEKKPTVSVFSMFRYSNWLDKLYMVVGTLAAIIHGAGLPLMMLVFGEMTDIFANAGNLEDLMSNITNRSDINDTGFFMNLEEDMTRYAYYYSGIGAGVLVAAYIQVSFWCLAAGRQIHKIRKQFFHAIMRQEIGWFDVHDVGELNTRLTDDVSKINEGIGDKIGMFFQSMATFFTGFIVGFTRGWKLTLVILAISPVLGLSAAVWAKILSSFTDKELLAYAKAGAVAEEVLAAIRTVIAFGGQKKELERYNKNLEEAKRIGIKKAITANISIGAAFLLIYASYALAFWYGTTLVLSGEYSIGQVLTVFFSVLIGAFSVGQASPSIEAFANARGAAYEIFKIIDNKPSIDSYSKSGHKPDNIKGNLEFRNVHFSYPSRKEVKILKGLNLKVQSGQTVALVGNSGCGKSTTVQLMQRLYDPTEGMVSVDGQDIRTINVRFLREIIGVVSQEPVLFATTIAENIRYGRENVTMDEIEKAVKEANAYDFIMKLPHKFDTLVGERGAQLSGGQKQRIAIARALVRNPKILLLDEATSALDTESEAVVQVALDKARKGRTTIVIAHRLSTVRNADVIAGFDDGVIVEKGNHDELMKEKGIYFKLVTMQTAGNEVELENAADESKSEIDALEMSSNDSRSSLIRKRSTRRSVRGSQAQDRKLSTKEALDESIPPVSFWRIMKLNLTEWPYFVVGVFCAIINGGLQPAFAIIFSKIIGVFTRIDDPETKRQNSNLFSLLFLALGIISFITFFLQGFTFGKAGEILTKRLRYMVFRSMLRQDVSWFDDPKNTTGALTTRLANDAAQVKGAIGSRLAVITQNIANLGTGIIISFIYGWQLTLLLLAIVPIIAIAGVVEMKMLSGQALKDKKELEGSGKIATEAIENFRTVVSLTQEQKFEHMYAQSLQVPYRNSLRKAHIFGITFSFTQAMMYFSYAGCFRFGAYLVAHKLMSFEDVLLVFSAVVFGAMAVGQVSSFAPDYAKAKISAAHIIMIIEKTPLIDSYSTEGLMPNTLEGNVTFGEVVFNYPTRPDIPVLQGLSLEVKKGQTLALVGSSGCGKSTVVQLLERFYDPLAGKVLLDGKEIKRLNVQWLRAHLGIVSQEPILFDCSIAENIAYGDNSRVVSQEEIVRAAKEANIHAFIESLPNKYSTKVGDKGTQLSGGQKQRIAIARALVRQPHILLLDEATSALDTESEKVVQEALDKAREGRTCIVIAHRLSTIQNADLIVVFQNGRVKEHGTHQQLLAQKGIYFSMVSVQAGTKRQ", "test": "MDR1 membrane permeability test", "assay_type": "in vitro ADME", "details": "pH 7.4, efflux ratio (ER), Papp B to A / A to B, human MDR1-expressing LLC-PK1 cells, read-out: MDR1 substrate screening 1 μM (MDRSUB1)/Ratio (NUMBER)", "experimental": "MDR1 Membrane Permeability Test\nWhen MDR1 is expressed in excess in LLC-PK1 cell, which is a polar cell, MDR1 is localized in apical membrane (A), thus promoting transcellular transport from the basement membrane side (B) toward direction A. When a ratio to the transcellular transport in the opposite direction is taken and a ratio to a control cell in which a mock vector has been introduced is further taken, an efflux ratio of MDR1 to simple diffusion (corrected efflux ratio) is calculated. Similarly, when a brain/plasma concentration ratio in Mdr1(−/−) mouse is divided by a brain/plasma concentration ratio in wild-type mouse, an efflux ratio of Mdr1 to simple diffusion in BBB (Kp, brain ratio, higher value means lower central nervous system permeability) is calculated. Adachi Y. et al. (Reference 1) has reported a positive correlation between corrected efflux ratio and Kp, brain ratio (FIG. 5(C)), and efflux ratio in MDR1 expressing cell and Kp, brain ratio (FIG. 5(B)).\nTo confirm the central nervous system permeability of the compounds of the present invention, a MDR1 membrane permeability test was performed by the following method.\nHuman MDR1-expressing LLC-PK1 cells were cultured according to the report of Takeuchi et al. (Reference 2). Human MDR1-expressing LLC-PK1 cells were cultured in 10% fetal bovine serum (Invitrogen), 500 μg/ml G418 (Invitrogen), 150 ng/ml colchicine-containing M199 medium (Invitrogen) under 5% CO2 conditions at 37° C.\nTranscellular transport was performed according to the report of Sugimoto et al. (Reference 3). The cells were cultured for 3 days on HTS Transwell (registered trademark) 96 well permeable support (pore size 0.4 μm, 0.143 cm^2 surface area, Corning Life Sciences) having polyethylene terephthalate membrane on which the cells had been seeded at 3.45×10^4 cells/well. After preincubation in M199 medium (containing 10 mmol/L HEPES, 1% BSA, pH 7.4) for 30 min, a drug solution (10 μmol/L digoxin, 200 μmol/L LY, […]) dissolved in M199 medium was added to the apical side or basolateral side of the Transwell by 75 or 250 μL each and the cells were cultured under 5% CO2 conditions at 37° C. After 1 hr, the sample was collected from the side opposite to the side where the drug solution was added, and the concentration of the test compound was measured by LC-MS/MS. As an internal standard substance, 100 ng/mL alprenolol and diclofenac were used. The analysis conditions were as follows.\nPapp, A to B and Papp, B to A (apparent permeability) were calculated from the formula (1), and the efflux ratio (ER) was calculated from the formula (2).", "values": [
      {"smiles": "Cc1c(Cc2ccc(-n3cccn3)cc2)cc2c(=O)n([C@H]3CCOC[C@@H]3O)cnc2c1C", "note": "[Comparative Example 1, 3-((3R,4S)-3-hydroxytetrahydro-2H-pyran-4-yl)-7,8-dimethyl-6-(4-(1H-pyrazol-1-yl)benzyl)quinazolin-4(3H)-one, reference compound]", "efflux ratio at 1 hr, 1 μM": 0.83},
      {"smiles": "Cc1c(Cc2ccc(-n3cccn3)cc2)cc2c(=O)n([C@H]3CCOC[C@@H]3O)nnc2c1C", "note": "[Comparative Example 2, 3-((3R,4S)-3-hydroxytetrahydro-2H-pyran-4-yl)-7,8-dimethyl-6-(4-(1H-pyrazol-1-yl)benzyl)-1,2,3-benzotriazin-4(3H)-one, reference compound]", "efflux ratio at 1 hr, 1 μM": 1.3},
      {"smiles": "Cc1ccc(Cc2cc3c(=O)n([C@H]4CCOC[C@@H]4O)cnc3c(C)c2C)cn1", "note": "[Example 7, 1,5-anhydro-2,3-dideoxy-3-(7,8-dimethyl-6-((6-methylpyridin-3-yl)methyl)-4-oxoquinazolin-3(4H)-yl)-L-threo-pentitol]", "efflux ratio at 1 hr, 1 μM": 3.5},
      {"smiles": "CNC(=O)c1ccc(Cc2cc3c(=O)n([C@H]4CCOC[C@@H]4O)cnc3c(Cl)c2C)cc1F", "note": "[Example 10, 1,5-anhydro-3-(8-chloro-6-(3-fluoro-4-(methylcarbamoyl)benzyl)-7-methyl-4-oxoquinazolin-3(4H)-yl)-2,3-dideoxy-L-threo-pentitol]", "efflux ratio at 1 hr, 1 μM": 15},
      {"smiles": "Cc1nn(C)cc1-c1ccc(Cc2cc3c(=O)n([C@H]4CCOC[C@@H]4O)cnc3c(Cl)c2C)cn1", "note": "[Example 12, 1,5-anhydro-3-(8-chloro-6-((6-(1,3-dimethyl-1H-pyrazol-4-yl)pyridin-3-yl)methyl)-7-methyl-4-oxoquinazolin-3(4H)-yl)-2,3-dideoxy-L-threo-pentitol]", "efflux ratio at 1 hr, 1 μM": 17},
      {"smiles": "Cc1c(Cc2ccc(-c3cn(C)nn3)nc2)cc2c(=O)n([C@H]3CCOC[C@@H]3O)cnc2c1Cl", "note": "[Example 14, 1,5-anhydro-3-(8-chloro-7-methyl-6-((6-(1-methyl-1H-1,2,3-triazol-4-yl)pyridin-3-yl)methyl)-4-oxoquinazolin-3(4H)-yl)-2,3-dideoxy-L-threo-pentitol]", "efflux ratio at 1 hr, 1 μM": 22},
      {"smiles": "Cc1c(Cc2ccc(-c3cn(C)nn3)cc2)cc2c(=O)n([C@H]3CCOC[C@@H]3O)cnc2c1Cl", "note": "[Example 15, 1,5-anhydro-3-(8-chloro-7-methyl-6-(4-(1-methyl-1H-1,2,3-triazol-4-yl)benzyl)-4-oxoquinazolin-3(4H)-yl)-2,3-dideoxy-L-threo-pentitol]", "efflux ratio at 1 hr, 1 μM": 9.7},
      {"smiles": "Cc1ccc(Cc2cc3c(=O)n([C@H]4CCOC[C@@H]4O)cnc3c(Cl)c2C)cn1", "note": "[Example 16, 1,5-anhydro-3-(8-chloro-7-methyl-6-((6-methylpyridin-3-yl)methyl)-4-oxoquinazolin-3(4H)-yl)-2,3-dideoxy-L-threo-pentitol]", "efflux ratio at 1 hr, 1 μM": 6.8},
      {"smiles": "Cc1c(Cc2ccc(-c3cn(C)nn3)cc2)cc2c(=O)n([C@H]3CCOC[C@@H]3O)nnc2c1Cl", "note": "[Example 20, 1,5-anhydro-3-(8-chloro-7-methyl-6-(4-(1-methyl-1H-1,2,3-triazol-4-yl)benzyl)-4-oxo-1,2,3-benzotriazin-3(4H)-yl)-2,3-dideoxy-L-threo-pentitol]", "efflux ratio at 1 hr, 1 μM": 2.9},
      {"smiles": "CNC(=O)c1ccc(Cc2cc3c(=O)n([C@H]4CCOC[C@@H]4O)cnc3c(F)c2C)cc1F", "note": "[Example 21, 1,5-anhydro-2,3-dideoxy-3-(8-fluoro-6-(3-fluoro-4-(methylcarbamoyl)benzyl)-7-methyl-4-oxoquinazolin-3(4H)-yl)-L-threo-pentitol]", "efflux ratio at 1 hr, 1 μM": 20},
      {"smiles": "Cc1c(Cc2ccc(-c3cn(C)nn3)cc2)cc2c(=O)n([C@H]3CCOC[C@@H]3O)cnc2c1F", "note": "[Example 22, 1,5-anhydro-2,3-dideoxy-3-(8-fluoro-7-methyl-6-(4-(1-methyl-1H-1,2,3-triazol-4-yl)benzyl)-4-oxoquinazolin-3(4H)-yl)-L-threo-pentitol]", "efflux ratio at 1 hr, 1 μM": 12},
      {"smiles": "Cc1nn(C)cc1-c1ccc(Cc2cc3c(=O)n([C@H]4CCOC[C@@H]4O)cnc3c(F)c2C)cn1", "note": "[Example 23, 1,5-anhydro-2,3-dideoxy-3-(6-((6-(1,3-dimethyl-1H-pyrazol-4-yl)pyridin-3-yl)methyl)-8-fluoro-7-methyl-4-oxoquinazolin-3(4H)-yl)-L-threo-pentitol]", "efflux ratio at 1 hr, 1 μM": 19},
      {"smiles": "Cc1c(Cc2ccc(C(=O)NC3(C)COC3)cc2)cc2c(=O)n([C@H]3CCOC[C@@H]3O)cnc2c1C", "note": "[Example 26, 1,5-anhydro-2,3-dideoxy-3-(7,8-dimethyl-6-(4-((3-methyloxetan-3-yl)carbamoyl)benzyl)-4-oxoquinazolin-3(4H)-yl)-L-threo-pentitol]", "efflux ratio at 1 hr, 1 μM": 24},
      {"smiles": "CCNC(=O)c1ccc(Cc2cc3c(=O)n([C@H]4CCOC[C@@H]4O)cnc3c(C)c2C)cc1", "note": "[Example 28, 1,5-anhydro-2,3-dideoxy-3-(6-(4-(ethylcarbamoyl)benzyl)-7,8-dimethyl-4-oxoquinazolin-3 (4H)-yl)-L-threo-pentitol]", "efflux ratio at 1 hr, 1 μM": 11},
      {"smiles": "Cc1c(Cc2ccc(C(=O)NCC(=O)N(C)C)cc2)cc2c(=O)n([C@H]3CCOC[C@@H]3O)cnc2c1C", "note": "[Example 30, 1,5-anhydro-2,3-dideoxy-3-(6-(4-((2-(dimethylamino)-2-oxoethyl)carbamoyl)benzyl)-7,8-dimethyl-4-oxoquinazolin-3 (4H)-yl)-L-threo-pentitol]", "efflux ratio at 1 hr, 1 μM": 24},
      {"smiles": "COC(C)(C)CNC(=O)c1ccc(Cc2cc3c(=O)n([C@H]4CCOC[C@@H]4O)cnc3c(C)c2C)cc1", "note": "[Example 31, 1,5-anhydro-2,3-dideoxy-3-(6-(4-((2-methoxy-2-methylpropyl)carbamoyl)benzyl)-7,8-dimethyl-4-oxoquinazolin-3 (4H)-yl)-L-threo-pentitol]", "efflux ratio at 1 hr, 1 μM": 12},
      {"smiles": "Cc1c(Cc2ccc(C(=O)NC3CCOCC3)cc2)cc2c(=O)n([C@H]3CCOC[C@@H]3O)cnc2c1C", "note": "[Example 32, 1,5-anhydro-2,3-dideoxy-3-(7,8-dimethyl-4-oxo-6-(4-(tetrahydro-2H-pyran-4-ylcarbamoyl)benzyl)quinazolin-3 (4H)-yl)-L-threo-pentitol]", "efflux ratio at 1 hr, 1 μM": 26},
      {"smiles": "Cc1c(Cc2ccc(C(=O)NCCCF)cc2)cc2c(=O)n([C@H]3CCOC[C@@H]3O)cnc2c1C", "note": "[Example 34, 1,5-anhydro-2,3-dideoxy-3-(6-(4-((3-fluoropropyl)carbamoyl)benzyl)-7,8-dimethyl-4-oxoquinazolin-3 (4H)-yl)-L-threo-pentitol]", "efflux ratio at 1 hr, 1 μM": 20},
      {"smiles": "Cc1c(Cc2ccc(C(=O)NC3(C(F)F)CC3)cc2)cc2c(=O)n([C@H]3CCOC[C@@H]3O)cnc2c1C", "note": "[Example 35, 1,5-anhydro-2,3-dideoxy-3-(6-(4-((1-(difluoromethyl)-cyclopropyl)carbamoyl)benzyl)-7,8-dimethyl-4-oxoquinazolin-3 (4H)-yl)-L-threo-pentitol]", "efflux ratio at 1 hr, 1 μM": 9},
      {"smiles": "Cc1c(Cc2ccc(C(=O)NC(C)C)cc2)cc2c(=O)n([C@H]3CCOC[C@@H]3O)cnc2c1C", "note": "[Example 36, 1,5-anhydro-2,3-dideoxy-3-(6-(4-(isopropylcarbamoyl)benzyl)-7,8-dimethyl-4-oxoquinazolin-3 (4H)-yl)-L-threo-pentitol]", "efflux ratio at 1 hr, 1 μM": 11},
      {"smiles": "Cc1c(Cc2ccc(C(=O)NCCF)cc2)cc2c(=O)n([C@H]3CCOC[C@@H]3O)cnc2c1C", "note": "[Example 37, 1,5-anhydro-2,3-dideoxy-3-(6-(4-((2-fluoroethyl)carbamoyl)benzyl)-7,8-dimethyl-4-oxoquinazolin-3 (4H)-yl)-L-threo-pentitol]", "efflux ratio at 1 hr, 1 μM": 12},
      {"smiles": "COCCCNC(=O)c1ccc(Cc2cc3c(=O)n([C@H]4CCOC[C@@H]4O)cnc3c(C)c2C)cc1", "note": "[Example 38, 1,5-anhydro-2,3-dideoxy-3-(6-(4-((3-methoxypropyl)carbamoyl)benzyl)-7,8-dimethyl-4-oxoquinazolin-3 (4H)-yl)-L-threo-pentitol]", "efflux ratio at 1 hr, 1 μM": 15},
      {"smiles": "Cc1c(Cc2ccc(C(=O)N3CC(O)C3)cc2)cc2c(=O)n([C@H]3CCOC[C@@H]3O)cnc2c1C", "note": "[Example 40, 1,5-anhydro-2,3-dideoxy-3-(6-(4-((3-hydroxyazetidin-1-yl)carbonyl)benzyl)-7,8-dimethyl-4-oxoquinazolin-3 (4H)-yl)-L-threo-pentitol]", "efflux ratio at 1 hr, 1 μM": 12},
      {"smiles": "Cc1c(Cc2ccc(C(=O)NC34CC(C3)C4)cc2)cc2c(=O)n([C@H]3CCOC[C@@H]3O)cnc2c1C", "note": "[Example 42, 1,5-anhydro-3-(6-(4-(bicyclo[1.1.1]penta-1-ylcarbamoyl)benzyl)-7,8-dimethyl-4-oxoquinazolin-3 (4H)-yl)-2,3-dideoxy-L-threo-pentitol]", "efflux ratio at 1 hr, 1 μM": 5.9}
    ]}
  ]
}
